Experimental data from paper PMC2424174, “Suppression of Tumor Growth and Angiogenesis by a Specific Antagonist of the Cell-Surface Expressed Nucleolin” (PLoS ONE, 2008).

Experiments:
[1] = test system: athymic nude mice; details: mouse, in vivo
Experimental: Inhibitory action of HB-19 was tested against established human breast carcinoma xenografts in the athymic nude mice. For this purpose, mice were inoculated subcutaneously with MDA-MB-231 or MDA-MB-435 cells that proliferate into palpable tumors in 2 weeks. Tumor bearing mice were then treated with HB-19 (Figure 8A, B) or control antitumoral reagents such as tamoxifen and 5-fluouracil (5-FU). The mice were administered 3 times per week with various drugs, during which time tumor-volume was measured by a caliper every third or fourth day. At the end of experiment, tumor-bearing mice were sacrificed, blood was collected for analysis, and the liver, lungs and spleen were removed for histological analysis.
4-week old female athymic nude Mice (Janvier, Le Genest St Isle, France) were injected subcutaneously in the right flank (MDA-MB-231) or in the mammary fat pad (MDA-MB-435) in 0.1 ml PBS. When the tumor reached about 40 mm^3, the mice were separated randomly in several groups. Administration of HB-19 in PBS (5 mg/kg body weight) was either by intraperitoneal, subcutaneous or peritumoral injections three times per week. Tumor volume was measured along two major axes with calipers. Tumor volume (mm^3) was calculated as follows: V = 4/3×π×R1 ^2×R2, where R1 is radius 1, R2 is radius 2 and R1<R2.

[2] = test system: HUVECs; test: HB-19 entry in HUVECs, confocal microscopy; type: cell-based, human; details: 5 µM HB-19/Btn, 1 hour, 37°C
Experimental: Figure 3 Specific binding and entry of HB-19 in endothelial cells. (A) HB-19/Btn forms a stable complex with nucleolin expressed on the surface of HUVECs. Cells were incubated (45 min, 20°C) with 0, 1, 2, 4, 8 and 12 µM of HB-19/Btn before preparation of surface/cytoplasmic and nuclear extracts and recovery of surface nucleolin from the surface/cytoplasmic extracts as in Figure 2A. Material extracted from 2×10^7 and 2×10^6 cells was analyzed in panels Surface and Surface/Cytoplasm or Nucleus, respectively. Immunoblotting was with the anti-nucleolin mAb D3. (B) The specific binding of HB-19/Btn to HUVECs. The binding of 1 µM HB-19/Btn was studied at 4 °C by FACScan analysis. To show the specificity of binding, the reaction was carried out in the absence or presence of 50 µM HB-19, F3, or 9Arg peptides. The ordinate gives the relative cell number, whereas the abscissa gives the relative fluorescence intensity. (C) HB-19 entry in HUVECs. Cells were incubated with 5 µM of HB-19/Btn (1 hour, 37°C) before fixation in PFA (for surface binding) or PFA-Triton (for entry), respectively. Cells were then successively incubated with rabbit anti-biotin antibodies and goat Texas Red-conjugated anti-rabbit IgG, and processed for confocal microscopy. The scans of cells toward the middle cell layer are presented (with the DAPI stained nuclei). […]

pseudo-tripeptide Lysψ(CH2N)-Pro-Arg coupled to a template (H2NLys-Lys-Lys-Gly-Pro-Lys-Glu-Lys-AhxCONH2) [HB-19, pseudopeptide presenting pentavalently the pseudo-tripeptide Lysψ(CH2N)-Pro-Arg coupled to a template]
effect on body weight and blood cell counts [1]: no effect on body weight and on blood cell counts
effect on tissues at autopsy [1]: no apparent effect on various tissues compared to control mice
internalization and subcellular localization [2]: internalized and is concentrated in the cytoplasm without translocation into the nucleus
